Test results reported in ChEMBL document CHEMBL1158776, “Pseudoguanolide sesquiterpene lactones from Vernoniopsis caudata and their in vitro antiplasmodial activities” (J Nat Prod, 2005).

Tests used:
Plasmodium falciparum = assay: Antiplasmodial activity against chloroquine-resistant Plasmodium falciparum FCB1 in human blood as [G-3H]hypoxanthine uptake; assay type: functional, organism-based
KB = assay: Cytotoxicity against human KB cells after 72 hrs; assay type: functional, cell-based

Compound: C=C1C(=O)O[C@@H]2C[C@@H](C)[C@@H]3C=CC(=O)[C@@]3(C)[C@@H](OC(=O)C(=C)[C@@H](C)O)[C@H]12
- IC50 (Plasmodium falciparum): 1000 nM
- IC50 (KB): 330 nM

Compound: C=C(C(=O)O[C@H]1[C@H]2[C@@H](C[C@@H](C)[C@@H]3C=CC(=O)[C@]31C)OC(=O)[C@@H]2C)[C@@H](C)O
- IC50 (Plasmodium falciparum): 410 nM
- IC50 (KB): 50 nM

Compound: C=C1C(=O)O[C@@H]2C[C@@H](C)[C@@H]3C=CC(=O)[C@@]3(C)[C@@H](OC(=O)/C(=C\C)CO)[C@H]12
- IC50 (Plasmodium falciparum): 190 nM
- IC50 (KB): 930 nM

Compound: COc1cccc2c1C(=O)c1c(O)c3c(c(O)c1C2=O)C[C@@](O)(C(=O)CO)C[C@@H]3O[C@H]1C[C@H](N)[C@H](O)[C@H](C)O1 [DOXORUBICIN]
- IC50 (KB): 270 nM
